According to US20240245661A1, “MCT4-TARGETED THERAPEUTICS PREVENTING AKI TO CKD TRANSITION” (Northwestern University, priority 2023, published 2024):
Entries after “also recorded” stand apart in the source; their conditions may differ.

Tests used:
[1] = test system: wild type (WT) C57BL/6 mice, post-ischemic (IR) kidney; test: Unilateral ischemia reperfusion injury (uIRI) model of AKI, post-ischemic treatment, wild type mice; format: in vivo, mouse; settings: for reduction in fibrosis assessed by Picro Sirius red staining / perfusion of IR kidney (visual): 7.5 mg/kg IP on alternate days from day 2
Experimental: Wild type (WT) C57BL/6 mice (7 week old) were procured by The Jackson Laboratory and acclimatized for 1 week at standard conditions (23° C.-25° C.; 40-60% humidity with standard diet). Post acclimatization animals were subjected to unilateral ischemia reperfusion (uIRI) model of acute kidney injury (AKI) in mice as described previously. [Rajendran, G et al., 2020, J Am Soc Nephrol 31(3) 501-516] Briefly, adult C57BL/6 mice (8 weeks old) were anesthetized with xylazine (10 mg/kg intraperitoneally) and ketamine (90-120 mg/kg intraperitoneally). Post anesthesia, a small incision in the midline of the abdomen was created and the left renal pedicle was occluded with a microaneurysm clamp, while the right kidney served as an internal control. The abdomen was temporarily partly closed by covering with clean stretch film, and the body temperature was monitored with a rectal probe and maintained at 37° C. using a heating pad. After 25 minutes, the clamps were removed, and reperfusion was visually confirmed. The abdomen was closed with a 6-0 suture and the skin with Michel miniature clips. Post-ischemia reperfusion injury (IRI), mice were randomly divided into two groups: 1. Vehicle treated (WT-Veh) and 2. Syrosingopine treated (WT-Syro). Treatment with syrosingopine or vehicle was initiated on day 2 post-IRI, a time point characterized by established kidney injury. Syrosingopine (Syro) was administered intraperitoneally (7.5 mg/kg body weight, prepared in mixture of DMSO and Tween 80) on alternate days (FIG. 1A). WT-Veh group was treated with mixture of DMSO+Tween 80 (Veh) and served as control group. On days 7 and 14 post-IRI, mice were sacrificed, and kidney damage was examined using standard methods of histopathological and molecular analysis.
Histopathological Analysis Isolated kidneys were fixed in buffered formalin for 24 h and paraffin blocks were papered using automated tissue processor (Leica Biosystems). 5 μm thick paraffin kidney sections were cut and stained with hematoxylin and eosin, and Picro Sirius red. Images were captured under microscope and were analysed using Image J (National Institutes of Health [NIH]). […] Fibrosis was assessed by the percentage of Picro-Sirius red^+ve area determined with ImageJ software (http://rsbweb.nih.gov/ij). For tubular injury scoring and quantification of Picro-Sirius red^+ve area ^310 and ^35 random visual fields of corticomedullary region, respectively were analyzed per kidney section for each sample at a magnification of ×200.
RNA and Protein Analyses RNA was isolated using Trizol from contralateral (uninjured right kidney) and IR (post unilateral clamping left kidney) kidneys and used for real-time quantitative PCR (qPCR) analysis of fibrosis and inflammatory related genes. 18S was used to normalize mRNA.
Total RNA was extracted using TRIzol reagent (n=4). Bulk RNAseq was performed by Admera Health. RNA integrity was checked with an Agilent Technologies 2100 Bioanalyzer. Poly(A) RNA sequencing libraries were prepared. Paired-ended sequencing was performed on an Illumina sequencing system. FastQC (version v0.11.8) was applied to check the quality of raw reads. Trimmomatic (version v0.38) was applied to cut adaptors and trim low-quality bases with the default setting. STAR Aligner version 2.7.1a was used to align the reads. Picard tools (version 2.20.4) was applied to mark duplicates of mapping. The StringTie version 2.0.4 was used to assemble the RNA-Seq alignments into potential transcripts. The featureCounts (version 1.6.0)/HTSeq was used to count mapped reads for genomic features such as genes, exons, promoter, gene bodies, genomic bins and chromosomal locations. The De-Seq2 (version 1.14.1) was used to do differential analysis.

[2] = test system: PHD^TiEC mice, post-ischemic kidney; test: Unilateral renal IRI in PHD^TiEC mice, post-ischemic treatment; format: in vivo, mouse; settings: day 14 post uIRI
Excerpt: As the primary metabolic response of the post-ischemic endothelium to HIF stabilization in the context of PHD inactivation was increased glycolysis, we next focused on this aspect. While increased lactate generation and efflux via the transporter MCT4 represent the final steps of hypoxia-induced glycolysis, lactate export was recently shown to be among the four key steps controlling glycolytic flux. […] Indeed, immunofluorescence staining confirmed high expression of MCT4 protein in the post-ischemic kidney endothelium of PHD^TiEC (FIG. 10A and FIG. 19). We next sought to investigate whether increased endothelial MCT4 causally contributes to the maladaptive post-ischemic kidney repair observed in the PHD^TiEC mice. To this end, we used syrosingopine, a dual inhibitor of monocarboxylate transporters MCT1 and MCT4 (60-fold higher potency on MCT4), which leads to end-product inhibition of glycolysis. As depicted in FIG. 10B, PHD^TiEC mice were treated with syrosingopine or vehicle starting on day 2 after uIRI and then every other day until day 14 post uIRI. […] MCT4 inhibition diminishes endothelial derived pro-inflammatory responses induced by hypoxia-reoxygenation and IL-1
Male mice 8-10 weeks of age underwent renal IRI surgery as previously described [Torosyan R, et al. Hypoxic preconditioning protects against ischemic kidney injury through the IDO1/kynurenine pathway. Cell Rep. 2021;36(7):109547]. Anesthesia was induced by IP injection of xylazine (10 mg/kg IP) and ketamine (90-120 mg/kg IP). After making a small midline abdominal incision, the left renal pedicle was occluded by applying a microaneurysm clamp for 25 minutes, while the right kidney was kept intact as an internal control in the unilateral IRI. For bilateral renal IRI, clamps were applied in both renal pedicles for 23 minutes. After the specified time, the clamps were removed, and reperfusion was visually confirmed. The incision site was closed with a 6-0 suture followed by the closure of the skin wound with Michel miniature clips. Throughout the surgical procedure, body temperature was monitored by a rectal probe and controlled with a heating pad at 37° C.
For in vivo MCT4 inhibition studies, mice were treated with syrosingopine (7.5 mg/kg) or vehicle starting on day 2 post IRI every other day until dissection on day 14 post IRI.
(§1) DNA and RNA were extracted and used for genomic or real-time PCR analysis, as previously described [Majmundar A J, et al. Hypoxia-Inducible Factors and the Response to Hypoxic Stress. Mol Cell. 2010; 40(2):294-309]. Real-time PCR was run in the QuantStudio 3 Real-Time PCR system (Applied Biosystems) using SYBR green or TaqMan PCR Master Mix. 18S rRNA was used for normalization.
For the histological examination, kidneys were fixed in 10% formalin buffer and paraffin blocks were prepared. To assess tubular damage and interstitial fibrosis, 5-μm transverse plane kidney sections were separately stained with hematoxylin and eosin (H&E) and Picro-Sirius red. […] Fibrosis was assessed by the percentage of Picro-Sirius red^+ve area determined with ImageJ software (http://rsbweb.nih.gov/ij). For tubular injury scoring and quantification of Picro-Sirius red^+ve area ^310 and ^35 random visual fields of corticomedullary region, respectively were analyzed per kidney section for each sample at a magnification of ×200.

[3] = test system: human primary pulmonary artery endothelial cells (HPAECs); test: EC adhesion molecule mRNA in HPAECs activated by hypoxia/reoxygenation and IL-1β; format: cell-based; settings: 5 μM; hypoxia 0.5% O2 18 h, reoxygenation 8 h with IL-1β 1 ng/mL; vs vehicle
Experimental: (§2) To assess whether MCT4 inhibition acts cell-autonomously in ECs to suppress pro-inflammatory responses, we performed in vitro experiments in which human primary pulmonary artery endothelial cells (HPAECs) were activated by 18 hours exposure to hypoxia (0.5% O2), followed by reoxygenation for 8 hours in the presence of IL-1β treatment (1 ng/mL) (FIG. 11A). To inhibit MCT4, we first used syrosingopine at concentration of 5 μM, which diminished lactate secretion, as indicated by reduction in extracellular lactate levels (FIG. 20A). […] Consistent responses were observed when we used siRNA against MCT4. […] (FIGS. 11D and E).
as §1
Human primary pulmonary artery ECs (HPAECs) were obtained from ATCC and grown on gelatin-coated dishes in Endothelial Cell Basal Medium-2 (Lonza, Catalog #CC-3156) supplemented with EGM-2 SingleQuots Supplements (Lonza, Catalog #CC-4176). MCT4 siRNA was purchased from Qiagen (FlexiTube GeneSolution GS9123 for SLC16A3; Catalog #1027416). […]

[4] = test system: THP-1 monocyte adhesion to HPAECs; test: Endothelial-monocyte cell adhesion assay; format: cell-based, human; settings: 5 μM; hypoxia-reoxygenation and IL-1β; 90 min incubation; vs vehicle
Experimental: as §2
Human primary pulmonary artery ECs (HPAECs) were obtained from ATCC and grown on gelatin-coated dishes in Endothelial Cell Basal Medium-2 (Lonza, Catalog #CC-3156) supplemented with EGM-2 SingleQuots Supplements (Lonza, Catalog #CC-4176). MCT4 siRNA was purchased from Qiagen (FlexiTube GeneSolution GS9123 for SLC16A3; Catalog #1027416). AllStars negative control siRNA (Qiagen) was used as control siRNA. HiPerFect transfection reagent (Qiagen, Catalog #301707) was used for siRNA transfection experiments. […]
Endothelial-monocyte cell adhesion assay. […] After 90 minutes, floating cells were removed, and fluorescent imaging was performed with quantification of the adhered monocytes using Fiji image J.

HPAECs = test: Lactate measurements in HPAEC media; format: cell-based, human; settings: 5 μM, 24 hours; vs vehicle (DMSO)
Experimental: Lactate measurements. […] Then, cell media were collected, and lactate levels were measured by a Lactate assay kit (Sigma, Catalog #MAK064) following the kit's instruction and protocol.

MCT4 = molecular target: T1, MCT4 (Homo sapiens, UniProt O15427); settings: dual MCT1/MCT4 inhibitor; cited from earlier work
T1 sequence (O15427 2-465 limits assumed): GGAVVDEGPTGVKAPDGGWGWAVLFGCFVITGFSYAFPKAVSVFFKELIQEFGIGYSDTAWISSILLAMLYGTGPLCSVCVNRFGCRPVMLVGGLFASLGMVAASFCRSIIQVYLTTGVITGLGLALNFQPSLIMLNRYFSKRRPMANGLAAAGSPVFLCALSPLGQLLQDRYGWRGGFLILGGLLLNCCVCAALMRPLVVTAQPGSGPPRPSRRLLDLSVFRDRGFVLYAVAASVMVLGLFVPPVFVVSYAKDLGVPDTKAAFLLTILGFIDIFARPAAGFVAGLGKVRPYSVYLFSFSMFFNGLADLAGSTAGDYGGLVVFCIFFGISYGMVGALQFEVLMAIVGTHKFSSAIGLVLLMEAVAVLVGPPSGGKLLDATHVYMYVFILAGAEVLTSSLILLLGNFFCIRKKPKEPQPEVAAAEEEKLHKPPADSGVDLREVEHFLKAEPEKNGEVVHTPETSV
T1 sequence (P35613 140-385 partner limits assumed): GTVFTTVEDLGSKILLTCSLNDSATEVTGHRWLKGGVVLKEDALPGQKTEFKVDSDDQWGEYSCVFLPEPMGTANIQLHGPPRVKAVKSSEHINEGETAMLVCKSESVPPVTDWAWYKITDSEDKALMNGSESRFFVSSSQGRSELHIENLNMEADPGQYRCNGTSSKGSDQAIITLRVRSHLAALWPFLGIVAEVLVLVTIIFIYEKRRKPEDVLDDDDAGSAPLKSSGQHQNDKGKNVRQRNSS

[5] = day 7 and day 14 post IRI, 7.5 mg/kg IP, vs vehicle, 7.5 mg/kg
[6] = 7.5 mg/kg every other day from day 2, vs vehicle

## CCOC(=O)Oc1c(OC)cc(C(=O)O[C@@H]2C[C@@H]3CN4CCc5c([nH]c6cc(OC)ccc56)[C@H]4C[C@@H]3[C@H](C(=O)OC)[C@H]2OC)cc1OC [syrosingopine]
[1]; [5]
  Icam1 mRNA level in IR kidney (qPCR): substantially lower levels; also recorded: significant reduction
  Loxl2 mRNA level in IR kidney (qPCR): substantially lower levels; also recorded: significant reduction
  Tgfβ1 mRNA level in IR kidney (qPCR): substantially lower levels; also recorded: significant reduction
  Vcam1 mRNA level in IR kidney (qPCR): substantially lower levels; also recorded: significant reduction
[1]; day 7 and day 14 post IRI, vs vehicle-treated controls
  Picro-Sirius red stained area (fibrosis), image analysis: significantly less staining
[1]; day 7 and day 14 post-IRI kidneys, 7.5 mg/kg IP, vs vehicle, 7.5 mg/kg
  tubular injury scoring: less injury; also recorded: reduced tubular damage
[1]; day 7 and day 14 post-IRI kidneys, vs vehicle
  genes associated with pro-inflammatory pathways (bulk RNA-seq): suppression
[1]; day 7 post IRI, vs vehicle
  reduction in fibrosis assessed by Picro Sirius red staining: 25%
[1]; day 14 post IRI, vs vehicle
  reduction in fibrosis assessed by Picro Sirius red staining: 62%
[1]; day 14 post IRI, vs vehicle, 7.5 mg/kg
  perfusion of IR kidney (visual): improved perfusion
[1]; day 14 post IRI, vs vehicle, listed as Syrosingopine, 7.5 mg/kg
  perfusion of IR kidney (visual): visually better perfused
[1]; day 14 post-IRI kidneys, vs vehicle
  genes of metabolic pathways, oxidative phosphorylation and fatty acid metabolism (bulk RNA-seq): significantly up-regulated; also recorded: upregulated
[2]; [6]
  reduction in collagen accumulation (Picro-Sirius red): ~51%
  reduction in tubular injury scoring: ~37%
[2]; vs vehicle treated group
  Acta2 mRNA level: significantly downregulated
  Loxl2 mRNA level: significantly downregulated
  Tgfb1 mRNA level: significantly downregulated
[3]
  ICAM1 mRNA expression: significantly suppressed
  VCAM1 mRNA expression: significantly suppressed
[4]
  reduction of adhesion of monocytes (THP-1 cells) to HPAECs: ~48%
HPAECs
  extracellular lactate levels: reduction
MCT4
  higher potency towards MCT4 than MCT1: 60 fold
